Data reported in patent publication US20230338397A1, “COMPOSITION COMPRISING CANNABINOIDS, AND/OR TERPENS, AND METHODS OF USING SAME” (priority 2020, published 2023).
“Also recorded” adds a separate entry of the source.

What was measured:
[1] = system: human NP tissue; test: NP organ culture: tissue weight reduction ex-vivo; details: for NP tissue weight reduction: 150 μM
[2] = system: enzymatically-dissociated human NP; test: NP organ culture: cell death by PI and flow cytometry after enzymatic digestion; details: for cell death of incubated nasal polyp cells: 72 h, FIG. 10
[3] = system: human Jurkat T cell line; test: T cell death in Jurkat cells (PI, flow cytometry); details: 2 h, FIG. 11; for T cell death compared to vehicle: CBD 1-20 μM, CBG 5-20 μM
[4] = system: dispersed nasal polyp cells; test: Cell death of dispersed NP cells (PI, flow cytometry), 2 h; assay type: cell-based, human; details: 10 μM, 2 h incubation, FIG. 12
Protocol: DNPCs are prepared from nasal polyps by means of enzymatic digestion. Nasal Polyps are incubated for 2 hours at 37° C. in RPMI 1640 (1 g of tissue per 4 mL) containing 2.0 mg/mL protease, 1.5 mg/mL collagenase, 0.75 mg/mL hyaluronidase, and 0.05 mg/mL DNase. The cell suspension is then filtered through a […] cell strainer to remove any undigested tissue and washed 2 times with washing medium (RPMI 1640 supplemented with 2% FCS, 2 mmol/L glutamine, 100 U/mL penicillin, and […] streptomycin). The cell pellet is resuspended in erythrocyte lysis buffer and washed with washing medium. After washing, DNPCs are suspended in culture medium (RPMI 1640 supplemented with 10% Foetal Calf Serum (FCS), 2 mmol/L glutamine, 100 U/mL penicillin, and […] streptomycin).
The effect of the treatment is evaluated by cell death parameters, using […] (PI) and flow cytometry (FACS) analysis, and enzymatic-linked immunoassay (ELISA).

[5] = system: GM-CSF; test: GM-CSF level in SEB-stimulated dispersed nasal polyp cells; assay type: cell-based, human; details: CBD 2.5 μM, 5 μM, 10 μM, 30 min before SEB, FIG. 8
[6] = system: human nasal polyp (NP) whole tissues; test: NP organ culture: detachment of cells/tissue pieces from nasal polyp (micrographs)

SMILES: C=C(C)[C@@H]1CCC(C)=C[C@H]1c1c(O)cc(CCCCC)cc1O [CBD, cannabidiol]
- NP tissue weight reduction ([1]; 3 h incubation, FIG. 4): significant tissue weight reduction; also recorded: significant nasal polyp weight reduction
- NP tissue weight reduction ([1]; CBD 15 μM, 1.5 mM, 24 h incubation, FIG. 5): significant human NP tissue weight reduction; also recorded: significant dose-dependent nasal polyp weight reduction
- percent of dead cells ([2]; CBD 15 μM, 150 μM, 1.5 mM, 24 h, PI-positive, FIG. 7): significantly increased the percent of dead cells
- cell death of incubated nasal polyp cells ([2]; CBD alone 150 μM): substantial cell death
- T cell death compared to vehicle [3]: significant cell death compared to control
- cell death % of dispersed NP cells [4]: significant increase in cell death %; also recorded: significant increase in cell death
- GM-CSF level [5]: significantly decrease; also recorded: significantly reduces or inhibits
- detachment of cells/tissue pieces from the main NP ([6]; CBD 150 μM, 3 h incubation, FIG. 1): starting to detach from the main NP whole tissue; also recorded: starting to detach and disaggregate from the main polyp
- cells/tissue pieces breaking off the main polyp ([6]; CBD 150 μM, 72 h incubation, FIG. 3): cells/tissue pieces are breaking off the main polyp into the medium
- detachment of cells/tissues from the main NP ([6]; CBD 600 μM, 24 h incubation, FIG. 2): significant detachment of cells/tissues; also recorded: significant detachment of nasal polyp cells/pieces

SMILES: C=C(C)[C@@H]1CCC(C)=C[C@H]1c1c(O)cc(CCC)cc1O [CBDV, cannabidivarin]
- T cell death ([3]; CBDV 20 μM): induce cell death

SMILES: CCCCCc1cc(O)c(C/C=C(\C)CCC=C(C)C)c(O)c1 [CBG, cannabigerol]
- size of nasal polyps ([1]; CBG 150 μM, 24 h, FIG. 13A): size of nasal polyps is reduced
- cell death of NP cells ([2]; CBG 150 μM, FIG. 13C-13D): substantial cell death
- T cell death compared to vehicle [3]: significant cell death compared to control
- cell death % of dispersed NP cells [4]: significant increase in cell death %; also recorded: significant increase in cell death

SMILES: CCCCCc1cc(O)c2c(c1)OC(C)(C)[C@@H]1CCC(C)=C[C@@H]21 [THC, tetrahydrocannabinol]
- viability of nasal polyp cells (cell death) ([2]; THC 10 μM and 100 μM, 24 h, FIG. 9): comparable effect as CBD at 15 μM and 150 μM, respectively
- % cell death ([2]; THC 100 μM, FIG. 9): comparable effect to CBD at a concentration of 150 μM
- cell death of incubated nasal polyp cells ([2]; THC alone 10 μM): negligible
